Several values for one entry are separate records, joined by “and”; a condition that tells them apart may be missing. Equal values may be shown once. Records with an inconclusive call do not appear.

For 24 molecules, T/C results are on record in PubChem BioAssay AID278 (DTP/NCI, 2004).

In the assay the test system is nude mice, A549 intrarenal xenograft, tumor weight change. The assay can be described thus: NCI In Vivo Anticancer Drug Screen. Data for tumor model A549 Human Adenocarcinoma of Lung with characteristics of Type II Alveolar Epithelial cells (intrarenal inoculation) in NU/NU BALB/C (nude) mice. The following applies: endpoint: mean tumor weight change, schedule: Q04DX003 (ip), higher = larger tumour. The protocol:
The antitumor activity of compounds was measured in mice bearing transplantable tumors. Survival or tumor size were measured and the results are expressed as the measurement made in the treated group (T) divided by the measurement made in the vehicle treated control group (C). The tumor model used in this assay is A549 Human Adenocarcinoma of Lung with characteristics of Type II Alveolar Epithelial cells (intrarenal inoculation) in NU/NU BALB/C (nude) mice

[1] abbreviates: dose: 25.0 mg/kg/injection, vehicle: saline with Tween-80.
[2] abbreviates: dose: 50.0 mg/kg/injection, vehicle: saline with Tween-80.
Where [3] appears, read: dose: 100.0 mg/kg/injection, vehicle: saline with Tween-80.
Setting [4] is: dose: 200.0 mg/kg/injection, vehicle: saline with Tween-80.
Setting [5] is: dose: 150.0 mg/kg/injection, vehicle: suspension in saline.
[6] abbreviates: dose: 300.0 mg/kg/injection, vehicle: suspension in saline.
Setting [7] is: dose: 150.0 mg/kg/injection, vehicle: saline with Tween-80.
Where [8] appears, read: dose: 300.0 mg/kg/injection, vehicle: saline with Tween-80.
Where [9] appears, read: dose: 300.0 mg/kg/injection, vehicle: DMSO.

In the case of `CCOC(=O)C1=C(C)O/C(=C/c2cccc(Cl)c2)C1=O`, the T/C by setting is: under setting [1], 48 % of control; under setting [2], 51 % of control; under setting [3], 77 % of control; under setting [4], 18 % of control.

With `COc1ccc2oc3c(ccc[n+]3C)c(=O)c2c1`, the T/C reads like this: under setting [3], 57 % of control; under setting [4], 38 % of control; (dose: 400.0 mg/kg/injection, vehicle: saline with Tween-80) 32 % of control.

On to `COc1cccc2c1C(=O)c1c(O)c3c(c(O)c1C2=O)C[C@@](O)(C(=O)CO)C[C@@H]3OC1CC(N)C(O)C(C)O1` (stereo partly drawn), for which the T/C by setting is: (dose: 2.0 mg/kg/injection, vehicle: saline) 11 % of control and 13 % of control and 25 % of control; (dose: 4.0 mg/kg/injection, vehicle: saline) 9 % of control and 13 % of control and 20 % of control; (dose: 8.0 mg/kg/injection, vehicle: saline) 7 % of control and -9 % of control and -8 % of control.

For `CCOc1ccc(C(C)c2cc3c(cc2OC)OCO3)cc1` (stereo not drawn), the T/C by setting is: (dose: 100.0 mg/kg/injection, vehicle: distilled water + Tween-80) 61 % of control; (dose: 200.0 mg/kg/injection, vehicle: distilled water + Tween-80) 59 % of control; (dose: 400.0 mg/kg/injection, vehicle: distilled water + Tween-80) 63 % of control.

As to `O=C1CN(CCN2CC(=O)N(CN3CCOCC3)C(=O)C2)CC(=O)N1CN1CCOCC1`, the T/C reads like this: (dose: 37.5 mg/kg/injection, vehicle: saline with Tween-80) 51 % of control; (dose: 75.0 mg/kg/injection, vehicle: saline with Tween-80) 60 % of control.

As for `CN(C)c1ccc2c(Nc3ccc(NS(C)(=O)=O)cc3)c3ccc(N(C)C)cc3nc2c1`, the T/C is 116 % of control (dose: 50.0 mg/kg/injection, vehicle: Klucel (hydroxypropylcellulose) (HPC)); 39 % of control (dose: 100.0 mg/kg/injection, vehicle: Klucel (hydroxypropylcellulose) (HPC)); 41 % of control (dose: 200.0 mg/kg/injection, vehicle: Klucel (hydroxypropylcellulose) (HPC)).

For `O=S(=O)(c1cccc(N=C=S)c1)c1cccc(N=C=S)c1`, the T/C (dose: 30.0 mg/kg/injection, vehicle: Klucel (hydroxypropylcellulose) (HPC)) is 67 % of control.

With `O=c1[nH]cnc2c1nnn2C1OC(CO)C(O)C1O` (stereo not drawn), the T/C under setting [5] was 83 % of control; the T/C under setting [6] was 47 % of control; the T/C (dose: 600.0 mg/kg/injection, vehicle: suspension in saline) is 32 % of control; the T/C (dose: 1200.0 mg/kg/injection, vehicle: suspension in saline) is 38 % of control.

Consider `CC(C)(C)c1ccc(C(=O)N2CCOC23CCCCC3)cc1`, for which the T/C was 55 % of control under setting [7]; 28 % of control under setting [8]; 63 % of control (dose: 600.0 mg/kg/injection, vehicle: saline with Tween-80); 42 % of control (dose: 1200.0 mg/kg/injection, vehicle: saline with Tween-80).

`C=CCSC(C)=O`: the T/C is, setting by setting: (dose: 62.5 mg/kg/injection, vehicle: suspension in saline) 83 % of control; (dose: 125.0 mg/kg/injection, vehicle: suspension in saline) 53 % of control; (dose: 250.0 mg/kg/injection, vehicle: suspension in saline) 90 % of control; (dose: 500.0 mg/kg/injection, vehicle: suspension in saline) 71 % of control.

With `CCC(=O)[O][Bi]([c]1ccccc1)[c]1ccccc1`, the T/C was 79 % of control (dose: 6.25 mg/kg/injection, vehicle: Klucel (hydroxypropylcellulose) (HPC)); 49 % of control (dose: 12.5 mg/kg/injection, vehicle: Klucel (hydroxypropylcellulose) (HPC)); 43 % of control (dose: 25.0 mg/kg/injection, vehicle: Klucel (hydroxypropylcellulose) (HPC)).

For the molecule `CC(CNC(=O)C12CC3CC(CC(C3)C1)C2)NC(=O)C12CC3CC(CC(C3)C1)C2` (stereo not drawn), the T/C under setting [9] is 106 % of control.

As for `c1ccc2[nH]c(CN(CCN(Cc3nc4ccccc4[nH]3)Cc3nc4ccccc4[nH]3)Cc3nc4ccccc4[nH]3)nc2c1`, the T/C runs as follows: (dose: 6.25 mg/kg/injection, vehicle: DMSO) 124 % of control; (dose: 12.5 mg/kg/injection, vehicle: DMSO) 102 % of control; (dose: 25.0 mg/kg/injection, vehicle: DMSO) 157 % of control.

For the molecule `Nc1nc2n[nH]nc2c(=O)[nH]1`, the T/C reads like this: (dose: 75.0 mg/kg/injection, vehicle: suspension in saline) 45 % of control; under setting [5], 60 % of control; under setting [6], 22 % of control.

Take `O=C(Nc1cccnc1)c1ccc([N+](=O)[O-])s1`: the T/C under setting [4] is 38 % of control and 51 % of control.

With `CCOc1cc2c(cc1C(C)c1ccc(OC)cc1)OCO2` (stereo not drawn), the T/C was 67 % of control (dose: 54.0 mg/kg/injection, vehicle: distilled water + alcohol); 48 % of control (dose: 90.0 mg/kg/injection, vehicle: distilled water + alcohol); 4 % of control (dose: 250.0 mg/kg/injection, vehicle: distilled water + alcohol).

Regarding `S=C1CCCCN1`, the T/C is 86 % of control (dose: 75.0 mg/kg/injection, vehicle: distilled water + Tween-80 + alcohol) and 69 % of control (dose: 150.0 mg/kg/injection, vehicle: distilled water + Tween-80 + alcohol).

Take `CCOC(=O)/C=C/C(=O)N1CCN(C(=O)/C=C/C(=O)OCC)C(C)C1` (stereo not drawn): the T/C (dose: 150.0 mg/kg/injection, vehicle: Klucel (hydroxypropylcellulose) (HPC)) was 50 % of control; the T/C (dose: 300.0 mg/kg/injection, vehicle: Klucel (hydroxypropylcellulose) (HPC)) is 71 % of control; the T/C (dose: 600.0 mg/kg/injection, vehicle: Klucel (hydroxypropylcellulose) (HPC)) was 49 % of control.

`Cc1cccc(OCC(O)CN2CC2)c1` (stereo not drawn): the T/C is 82 % of control under setting [2], 46 % of control under setting [3] and 81 % of control under setting [4].

For `Cc1ccc(/C=C/C(=O)/C=C/c2ccc(C)o2)o1`, the T/C reads like this: (dose: 100.0 mg/kg/injection, vehicle: DMSO) 123 % of control; (dose: 200.0 mg/kg/injection, vehicle: DMSO) 73 % of control; (dose: 400.0 mg/kg/injection, vehicle: DMSO) 78 % of control; (dose: 800.0 mg/kg/injection, vehicle: DMSO) 68 % of control.

As for `CCC(NC(N)=O)C(CC)NC(N)=O` (stereo not drawn), the T/C is 68 % of control (dose: 6.25 mg/kg/injection, vehicle: saline with Tween-80); 120 % of control (dose: 12.5 mg/kg/injection, vehicle: saline with Tween-80); 102 % of control under setting [1].

With `CCCCCCCCCCCCCCCCCCOCC(CO)OC` (stereo not drawn), the T/C under setting [7] was 47 % of control and 53 % of control; the T/C under setting [8] is 56 % of control and 73 % of control.

In the case of `O=C(O)[C@H](Cc1ccccc1)N1C(=O)c2ccccc2C1=O`, the T/C (dose: 150.0 mg/kg/injection, vehicle: DMSO) was 94 % of control; the T/C under setting [9] was 77 % of control; the T/C (dose: 600.0 mg/kg/injection, vehicle: DMSO) was 47 % of control.

As to `NC(Cc1ccc(N(CCCl)Cc2ccccc2)cc1)C(=O)O` (stereo not drawn), the T/C is, setting by setting: under setting [2], 74 % of control; under setting [3], 32 % of control; under setting [4], 38 % of control.
